Laboratory results published in patent publication US20240116951A1, “HETEROCYCLIC COMPOUNDS AND USES THEREOF” (Kumquat Biosciences Inc., priority 2022, published 2024).

Key:
Format in all cases: binding
KRAS G12S = target: T1, KRAS G12S (Homo sapiens, UniProt P01116, G12S); experiment: HTRF assay of K-Ras G12S interaction with SOS1 (PPI-HTRF); details: 5 nM KRAS G12S, read-out: PPI-HTRF-5 nM KRAS G12S
T1 construct: made in house; host or cells: E. coli, e.g. BL21 (DE3)
Procedure, shortened: (§1)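 Equilibrium binding between GST-K-Ras and His-tagged human SOS1 is measured by FRET from a europium anti-GST donor to an XL665 anti-His acceptor. Compounds are run in duplicate at 10, 2.5, 0.63, 0.16, 0.04 and 0.01 μM, and IC50 is calculated from the 665/620 nm ratio.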

KRAS WT = target: T2, KRAS WT (Homo sapiens, UniProt P01116); experiment: HTRF assay of wildtype K-Ras interaction with SOS1 (PPI-HTRF); details: HTRF, 5 nM KRAS WT; read-out: PPI-HTRF-5 nM KRAS WT
T2 construct: made in house; host or cells: E. coli, e.g. BL21 (DE3)
Procedure, shortened: as §1

KRAS G12D = target: T3, KRAS G12D (Homo sapiens, UniProt P01116, G12D); experiment: HTRF assay of K-Ras G12D interaction with SOS1 (PPI-HTRF); details: HTRF, 5 nM KRAS G12D; read-out: PPI-HTRF-5 nM KRAS G12D
T3 construct: made in house; host or cells: E. coli, e.g. BL21 (DE3)
Procedure, shortened: as §1

T1 sequence (P01116 1-188 isoform P01116-2 G12S): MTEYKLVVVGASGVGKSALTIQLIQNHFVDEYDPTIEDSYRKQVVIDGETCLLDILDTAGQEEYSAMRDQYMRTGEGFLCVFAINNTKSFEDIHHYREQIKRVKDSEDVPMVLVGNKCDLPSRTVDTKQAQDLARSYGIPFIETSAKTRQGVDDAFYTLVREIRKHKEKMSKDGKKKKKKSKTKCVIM
T2 sequence (P01116 1-188 isoform P01116-2): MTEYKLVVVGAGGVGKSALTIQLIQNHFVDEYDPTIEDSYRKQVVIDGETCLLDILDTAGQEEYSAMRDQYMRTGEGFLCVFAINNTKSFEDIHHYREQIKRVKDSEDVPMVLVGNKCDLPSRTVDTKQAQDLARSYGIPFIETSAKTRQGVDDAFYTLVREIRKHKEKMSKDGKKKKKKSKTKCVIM
T3 sequence (P01116 1-188 isoform P01116-2 G12D): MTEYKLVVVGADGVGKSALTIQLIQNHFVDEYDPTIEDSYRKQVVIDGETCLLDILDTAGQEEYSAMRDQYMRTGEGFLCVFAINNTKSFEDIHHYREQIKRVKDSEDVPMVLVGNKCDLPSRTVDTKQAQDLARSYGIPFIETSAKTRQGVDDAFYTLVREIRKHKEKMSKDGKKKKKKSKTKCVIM

| IC50 (KRAS G12S) | IC50 (KRAS WT) | IC50 (KRAS G12D) | Compound |
| --- | --- | --- | --- |
| < 5 µM | < 5 µM | < 5 µM | Nc1nc2c(-c3c(Cl)cc4c(N5CCCC6(CCN6)CC5)nc(OC[C@@]56CCCN5C[C@H](F)C6)nc4c3F)ccc(F)c2s1 (stereo partly drawn) [Compound 276, 4-(6-chloro-8-fluoro-2-(((2R,7aS)-2-fluorotetrahydro-1H-pyrrolizin-7a(5H)-yl)methoxy)-4-(1,7-diazaspiro[3.6]decan-7-yl)quinazolin-7-yl)-7-fluorobenzo[d]thiazol-2-amine] |
| < 5 µM | < 5 µM | < 5 µM | Nc1nc2c(-c3c(F)c4nc(OC[C@@]56CCCN5C[C@H](F)C6)nc(N5CCC6(CCN6C(=O)n6cncn6)C5)c4c(=O)n3C3CC3)ccc(F)c2s1 (stereo partly drawn) [Compound 257, 4-(1-(1H-1,2,4-triazole-1-carbonyl)-1,6-diazaspiro[3.4]octan-6-yl)-7-(2-amino-7-fluorobenzo[d]thiazol-4-yl)-6-cyclopropyl-8-fluoro-2-(((2R,7aS)-2-fluorotetrahydro-1H-pyrrolizin-7a(5H)-yl)methoxy)pyrido[4,3-d]pyrimidin-5(6H)-one] |
| < 5 µM | < 5 µM | < 5 µM | N#Cc1c(N)sc2c(F)ccc(-c3c(Cl)cc4c(N5CC[C@@]6(CCN6C(=O)n6cnc(C(F)F)n6)C5)nc(OC[C@@]56CCCN5C[C@H](F)C6)nc4c3F)c12 (atropisomer, axis not shown; (aS)) [Compound 278, 2-amino-4-((R)-6-chloro-4-((R)-1-(3-(difluoromethyl)-1H-1,2,4-triazole-1-carbonyl)-1,6-diazaspiro[3.4]octan-6-yl)-8-fluoro-2-(((2R,7aS)-2-fluorotetrahydro-1H-pyrrolizin-7a(5H)-yl)methoxy)quinazolin-7-yl)-7-fluorobenzo[b]thiophene-3-carbonitrile] |
| < 5 µM | < 5 µM | < 5 µM | N#Cc1c(N)sc2c(F)ccc(-c3c(Cl)cc4c(N5CCC6(CC5)CCN6C(=O)C5CC5(F)F)nc(OC[C@@]56CCCN5C[C@H](F)C6)nc4c3F)c12 (stereo partly drawn) [Compound 342, 2-amino-4-(6-chloro-4-(1-(2,2-difluorocyclopropane-1-carbonyl)-1,7-diazaspiro[3.5]nonan-7-yl)-8-fluoro-2-(((2R,7aS)-2-fluorotetrahydro-1H-pyrrolizin-7a(5H)-yl)methoxy)quinazolin-7-yl)-7-fluorobenzo[b]thiophene-3-carbonitrile] |
| < 5 µM | < 5 µM | < 5 µM | N#Cc1c(N)sc2c(F)ccc(-c3c(Cl)cc4c(N5CC[C@@]6(CCN6C(=O)n6cncn6)C5)nc(OC[C@@]56CCCN5C[C@H](F)C6)nc4c3F)c12 (single isomer, unassigned) [Compound 234] |
| < 5 µM | < 5 µM | < 5 µM | N#Cc1c(N)sc2c(F)ccc(-c3c(Cl)cc4c(N5CCC6(CCN6C(=O)n6cnnn6)C5)nc(OC[C@@]56CCCN5C[C@H](F)C6)nc4c3F)c12 (stereo partly drawn) [Compound 293, 4-(4-(1-(1H-tetrazole-1-carbonyl)-1,6-diazaspiro[3.4]octan-6-yl)-6-chloro-8-fluoro-2-(((2R,7aS)-2-fluorotetrahydro-1H-pyrrolizin-7a(5H)-yl)methoxy)quinazolin-7-yl)-2-amino-7-fluorobenzo[b]thiophene-3-carbonitrile] |
| < 5 µM | < 5 µM | < 5 µM | C[C@H](Oc1nc(N2CCC3(CCN3C(=O)[C@@H]3C[C@H]3C#N)C2)c2cc(Cl)c(-c3ccc(F)c4sc(N)c(C#N)c34)c(F)c2n1)[C@@H]1CCCN1C (stereo partly drawn) [Compound 206, 2-amino-4-(6-chloro-4-(1-((1R,2R)-2-cyanocyclopropane-1-carbonyl)-1,6-diazaspiro[3.4]octan-6-yl)-8-fluoro-2-((S)-1-((S)-1-methylpyrrolidin-2-yl)ethoxy)quinazolin-7-yl)-7-fluorobenzo[b]thiophene-3-carbonitrile] |
| < 5 µM | < 5 µM | < 5 µM | Nc1nc2c(-c3c(Cl)cc4c(NC5CC6(CCN6)C5)nc(OC[C@@]56CCCN5C[C@H](F)C6)nc4c3F)ccc(F)c2s1 (stereo partly drawn) [Compound 230, 4-(4-((1-azaspiro[3.3]heptan-6-yl)amino)-6-chloro-8-fluoro-2-(((2R,7aS)-2-fluorotetrahydro-1H-pyrrolizin-7a(5H)-yl)methoxy)quinazolin-7-yl)-7-fluorobenzo[d]thiazol-2-amine] |
| < 5 µM | < 5 µM | < 5 µM | Nc1nc2c(-c3c(Cl)cc4c(N5CC6(CNCCN6)C5)nc(OC[C@@]56CCCN5C[C@H](F)C6)nc4c3F)ccc(F)c2s1 [Compound 205, 4-(6-chloro-8-fluoro-2-(((2R,7aS)-2-fluorotetrahydro-1H-pyrrolizin-7a(5H)-yl)methoxy)-4-(2,5,8-triazaspiro[3.5]nonan-2-yl)quinazolin-7-yl)-7-fluorobenzo[d]thiazol-2-amine] |
| < 5 µM | < 5 µM | < 5 µM | Nc1nc2c(-c3c(Cl)cc4c(N5CCCC6(CC5)CCN6C=O)nc(OC[C@@]56CCCN5C[C@H](F)C6)nc4c3F)ccc(F)c2s1 (stereo partly drawn) [Compound 233, 7-(7-(2-amino-7-fluorobenzo[d]thiazol-4-yl)-6-chloro-8-fluoro-2-(((2R,7aS)-2-fluorotetrahydro-1H-pyrrolizin-7a(5H)-yl)methoxy)quinazolin-4-yl)-1,7-diazaspiro[3.6]decane-1-carbaldehyde] |
| < 5 µM | < 5 µM | < 5 µM | C[C@@H]1C[C@@]2(CCN2)CN1c1nc(OC[C@@]23CCCN2C[C@H](F)C3)nc2c(F)c(-c3ccc(F)c4sc(N)c(C#N)c34)c(Cl)cc12 [Compound 335, 2-amino-4-(6-chloro-8-fluoro-2-(((2R,7aS)-2-fluorotetrahydro-1H-pyrrolizin-7a(5H)-yl)methoxy)-4-((4S,7R)-7-methyl-1,6-diazaspiro[3.4]octan-6-yl)quinazolin-7-yl)-7-fluorobenzo[b]thiophene-3-carbonitrile] |
| < 5 µM | < 5 µM | < 5 µM | N#Cc1c(N)sc2c(F)ccc(-c3c(Cl)cc4c(N5CCC6(CCN6)C5)nc(OC[C@@]56CCCN5C[C@H](F)C6)nc4c3F)c12 (stereo partly drawn) [Compound 212, 2-amino-4-(6-chloro-8-fluoro-2-(((2R,7aS)-2-fluorotetrahydro-1H-pyrrolizin-7a(5H)-yl)methoxy)-4-(1,6-diazaspiro[3.4]octan-6-yl)quinazolin-7-yl)-7-fluorobenzo[b]thiophene-3-carbonitrile] |
| < 5 µM | < 5 µM | < 5 µM | C[C@H](Oc1nc(N2CC[C@@]3(CCN3C(=O)C3CC3(F)F)C2)c2cc(Cl)c(-c3ccc(F)c4sc(N)c(C#N)c34)c(F)c2n1)[C@@H]1CCCN1C (stereo partly drawn) [Compound 346, (4S)-2-amino-4-(6-chloro-4-((4R)-1-(2,2-difluorocyclopropane-1-carbonyl)-1,6-diazaspiro[3.4]octan-6-yl)-8-fluoro-2-((S)-1-((S)-1-methylpyrrolidin-2-yl)ethoxy)quinazolin-7-yl)-7-fluorobenzo[b]thiophene-3-carbonitrile] |
| < 5 µM | < 5 µM | < 5 µM | N#Cc1c(N)sc2c(F)ccc(-c3c(Cl)cc4c(N5CCCC6(CCCN6)C5)nc(OC[C@@]56CCCN5C[C@H](F)C6)nc4c3F)c12 (stereo partly drawn) [Compound 218, 2-amino-4-(6-chloro-8-fluoro-2-(((2R,7aS)-2-fluorotetrahydro-1H-pyrrolizin-7a(5H)-yl)methoxy)-4-(1,7-diazaspiro[4.5]decan-7-yl)quinazolin-7-yl)-7-fluorobenzo[b]thiophene-3-carbonitrile] |
| < 5 µM | < 5 µM | < 5 µM | C[C@H]1N(c2nc(OC[C@@]34CCCN3C[C@H](F)C4)nc3c(F)c(-c4ccc(F)c5sc(N)c(C#N)c45)c(Cl)cc23)CC[C@]12CCN2C(=O)n1cnc(Cl)n1 [Compound 229, 2-amino-4-(6-chloro-4-((4S,5R)-1-(3-chloro-1H-1,2,4-triazole-1-carbonyl)-5-methyl-1,6-diazaspiro[3.4]octan-6-yl)-8-fluoro-2-(((2R,7aS)-2-fluorotetrahydro-1H-pyrrolizin-7a(5H)-yl)methoxy)quinazolin-7-yl)-7-fluorobenzo[b]thiophene-3-carbonitrile] |
| < 5 µM | < 5 µM | < 5 µM | CC(C)c1ncn(C(=O)N2CCC23CCN(c2nc(OC[C@@]45CCCN4C[C@H](F)C5)nc4c(F)c(-c5ccc(F)c6sc(N)c(C#N)c56)c(Cl)cc24)C3)n1 (stereo partly drawn) [Compound 304, 2-amino-4-(6-chloro-8-fluoro-2-(((2R,7aS)-2-fluorotetrahydro-1H-pyrrolizin-7a(5H)-yl)methoxy)-4-(1-(3-isopropyl-1H-1,2,4-triazole-1-carbonyl)-1,6-diazaspiro[3.4]octan-6-yl)quinazolin-7-yl)-7-fluorobenzo[b]thiophene-3-carbonitrile] |
| < 5 µM | < 5 µM | < 5 µM | N#CCc1ncn(C(=O)N2CCC23CCN(c2nc(OC[C@@]45CCCN4C[C@H](F)C5)nc4c(F)c(-c5ccc(F)c6sc(N)c(C#N)c56)c(Cl)cc24)C3)n1 (stereo partly drawn) [Compound 320, 2-amino-4-(6-chloro-4-(1-(3-(cyanomethyl)-1H-1,2,4-triazole-1-carbonyl)-1,6-diazaspiro[3.4]octan-6-yl)-8-fluoro-2-(((2R,7aS)-2-fluorotetrahydro-1H-pyrrolizin-7a(5H)-yl)methoxy)quinazolin-7-yl)-7-fluorobenzo[b]thiophene-3-carbonitrile] |
